Laboratory results reported in ChEMBL document CHEMBL5584220, “Design, synthesis, and biological evaluation of aralkyl piperazine and piperidine derivatives targeting SSRI/5-HT1A/5-HT7” (Bioorg Med Chem, 2024).

Key:
[1] = molecular target: hERG (KCNH2) (Homo sapiens, UniProt Q12809); experiment: in vitro; settings: HEK293 cells that express hERG
[2] = in vitro; settings: human, liver microsomes
[3] = in vitro; settings: mouse, liver microsomes
[4] = molecular target: Sodium-dependent serotonin transporter (Homo sapiens, UniProt P31645); assay type: cell-based, HEK293
[5] = molecular target: Voltage-gated inwardly rectifying potassium channel KCNH2 (Homo sapiens, UniProt Q12809)
[6] = molecular target: T1, 5-hydroxytryptamine receptor 1A (Homo sapiens, UniProt P08908)
T1 sequence (P08908 whole entry): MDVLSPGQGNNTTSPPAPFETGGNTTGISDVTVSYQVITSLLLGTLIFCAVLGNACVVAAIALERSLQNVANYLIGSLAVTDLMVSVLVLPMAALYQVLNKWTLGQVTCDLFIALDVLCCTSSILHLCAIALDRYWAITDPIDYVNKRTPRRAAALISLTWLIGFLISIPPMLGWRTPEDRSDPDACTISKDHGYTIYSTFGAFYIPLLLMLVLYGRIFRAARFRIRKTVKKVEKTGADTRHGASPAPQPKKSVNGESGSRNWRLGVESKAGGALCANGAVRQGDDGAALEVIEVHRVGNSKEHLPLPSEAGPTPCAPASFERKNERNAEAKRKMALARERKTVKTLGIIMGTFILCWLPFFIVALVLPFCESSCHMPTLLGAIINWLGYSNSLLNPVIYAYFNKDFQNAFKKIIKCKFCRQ

[7] = molecular target: 5-hydroxytryptamine receptor 7 (Homo sapiens, UniProt P34969)
Sequence of 5-hydroxytryptamine receptor 7 (P34969 whole entry): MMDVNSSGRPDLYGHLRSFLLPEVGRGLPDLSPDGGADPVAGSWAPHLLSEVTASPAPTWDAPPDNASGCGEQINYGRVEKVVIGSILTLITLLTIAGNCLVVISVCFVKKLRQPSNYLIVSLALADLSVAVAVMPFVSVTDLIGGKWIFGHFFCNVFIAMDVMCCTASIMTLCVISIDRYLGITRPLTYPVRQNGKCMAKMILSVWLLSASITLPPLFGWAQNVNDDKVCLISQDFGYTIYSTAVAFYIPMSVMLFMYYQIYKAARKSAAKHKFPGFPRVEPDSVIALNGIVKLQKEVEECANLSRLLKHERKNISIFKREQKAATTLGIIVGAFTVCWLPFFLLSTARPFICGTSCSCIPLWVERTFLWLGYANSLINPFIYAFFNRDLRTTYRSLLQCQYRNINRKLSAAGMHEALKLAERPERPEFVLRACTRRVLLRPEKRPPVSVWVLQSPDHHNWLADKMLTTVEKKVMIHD

Sequence of Sodium-dependent serotonin transporter (P31645 whole entry): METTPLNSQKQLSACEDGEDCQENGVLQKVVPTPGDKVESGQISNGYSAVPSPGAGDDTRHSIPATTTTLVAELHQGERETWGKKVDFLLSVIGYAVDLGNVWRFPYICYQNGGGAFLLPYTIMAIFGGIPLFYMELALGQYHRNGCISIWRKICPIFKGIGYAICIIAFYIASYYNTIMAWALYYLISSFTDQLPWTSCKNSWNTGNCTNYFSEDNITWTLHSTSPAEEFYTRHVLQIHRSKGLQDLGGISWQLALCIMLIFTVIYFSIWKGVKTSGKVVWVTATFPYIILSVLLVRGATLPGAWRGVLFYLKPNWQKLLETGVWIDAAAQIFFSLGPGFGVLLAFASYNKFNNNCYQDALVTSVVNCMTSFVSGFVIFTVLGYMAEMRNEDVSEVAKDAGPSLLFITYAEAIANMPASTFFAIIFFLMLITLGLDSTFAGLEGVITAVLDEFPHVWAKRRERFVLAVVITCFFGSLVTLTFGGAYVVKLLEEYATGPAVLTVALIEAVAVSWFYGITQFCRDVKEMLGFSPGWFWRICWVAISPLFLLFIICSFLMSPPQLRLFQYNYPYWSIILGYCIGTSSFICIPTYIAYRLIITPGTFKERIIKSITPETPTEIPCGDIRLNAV
Sequence of Voltage-gated inwardly rectifying potassium channel KCNH2 (Q12809 whole entry): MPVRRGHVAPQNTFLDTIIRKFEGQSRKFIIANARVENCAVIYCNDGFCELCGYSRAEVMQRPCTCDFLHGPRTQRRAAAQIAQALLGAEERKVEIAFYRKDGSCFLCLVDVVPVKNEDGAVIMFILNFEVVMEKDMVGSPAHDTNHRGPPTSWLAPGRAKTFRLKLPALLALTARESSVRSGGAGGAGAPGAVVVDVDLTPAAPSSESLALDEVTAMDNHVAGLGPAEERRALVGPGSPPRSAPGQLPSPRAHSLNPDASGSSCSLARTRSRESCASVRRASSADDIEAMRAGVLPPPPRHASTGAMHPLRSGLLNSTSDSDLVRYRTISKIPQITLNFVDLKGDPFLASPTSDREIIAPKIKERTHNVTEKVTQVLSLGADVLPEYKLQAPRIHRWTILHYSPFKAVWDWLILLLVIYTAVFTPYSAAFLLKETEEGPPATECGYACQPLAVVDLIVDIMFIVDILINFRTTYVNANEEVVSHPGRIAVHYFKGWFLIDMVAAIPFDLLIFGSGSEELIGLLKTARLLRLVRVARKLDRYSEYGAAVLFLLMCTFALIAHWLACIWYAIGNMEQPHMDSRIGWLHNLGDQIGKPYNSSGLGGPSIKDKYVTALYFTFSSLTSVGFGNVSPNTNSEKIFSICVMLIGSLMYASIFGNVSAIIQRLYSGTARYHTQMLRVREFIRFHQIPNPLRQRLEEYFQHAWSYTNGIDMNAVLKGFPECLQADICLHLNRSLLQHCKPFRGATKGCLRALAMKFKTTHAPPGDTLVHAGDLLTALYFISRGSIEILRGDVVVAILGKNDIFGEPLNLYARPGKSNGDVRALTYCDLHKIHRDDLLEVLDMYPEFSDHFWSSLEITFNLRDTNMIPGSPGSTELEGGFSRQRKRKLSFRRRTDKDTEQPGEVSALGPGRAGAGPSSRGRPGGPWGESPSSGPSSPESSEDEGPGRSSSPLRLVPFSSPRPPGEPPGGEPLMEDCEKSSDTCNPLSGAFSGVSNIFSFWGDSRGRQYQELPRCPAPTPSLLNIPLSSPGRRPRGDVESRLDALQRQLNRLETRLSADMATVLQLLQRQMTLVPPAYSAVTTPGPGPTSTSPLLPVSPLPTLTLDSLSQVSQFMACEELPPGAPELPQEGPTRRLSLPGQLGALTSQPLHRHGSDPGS
Sequence of hERG (KCNH2) (Q12809 whole entry): as above

SMILES	inhibition at 1 µM [1]	microsomal CLint at 1 µM [2]	microsomal CLint at 1 µM [3]	IC50 [4]	IC50 [5]	Ki [6]	other results
CSc1ccccc1C1CCN(CCCc2c[nH]c3ccc(F)cc23)CC1	96.6%	24.5 µL/min/mg	62.3 µL/min/mg				
COc1ccc2c(c1)[C@]13CCCC[C@@H]1[C@H](C2)N(C)CC3 [DEXTROMETHORPHAN]		28 µL/min/mg					
Fc1ccc(C2=CCN(CCCc3c[nH]c4ccc(F)cc34)CC2)c(-c2ccccc2)c1	82.6%	22.1 µL/min/mg	202 µL/min/mg				
COc1ccccc1N1CCN(CCCc2c[nH]c3ccc(F)cc23)CC1				0.85 nM	310 nM		
CCSc1ccccc1N1CCN(CCCc2c[nH]c3ccc(F)cc23)CC1	90.1%	39.5 µL/min/mg	47.6 µL/min/mg				
Fc1ccc(C2CCN(CCCc3c[nH]c4ccc(F)cc34)CC2)c(-c2ccccc2)c1		27.8 µL/min/mg		251 nM	160 nM	5.7 nM	Ki [7]: 26.8 nM
CCOc1ccccc1N1CCN(CCCc2c[nH]c3ccc(F)cc23)CC1				0.85 nM	160 nM		
CCOc1ccccc1N1CCN(CCCCCn2cnc3sc(C)c(C)c3c2=O)CC1						2.99 nM	Ki [7]: 1.03 nM
OC(CCN1CCC(c2ccc(F)cc2-c2ccccc2)CC1)c1c[nH]c2ccc(F)cc12 (centres undefined)					530 nM		
COc1ccccc1N1CCN(CCCCCC(=O)NC2CCCc3ccccc32)CC1 (centres undefined)						6.64 nM	Ki [7]: 8.6 nM
CSc1ccccc1N1CCN(CCCCCc2c[nH]c3ccc(F)cc23)CC1	84.5%	90.1 µL/min/mg	83.2 µL/min/mg				
NC(=O)c1ccc2[nH]cc(CCCN3CCC(c4ccc(F)cc4-c4ccccc4)CC3)c2c1				> 10000 nM		< 0.04 nM	
CSc1ccccc1N1CCN(CCCCCC(=O)NC2CCCc3ccccc32)CC1 (centres undefined)						0.22 nM	Ki [7]: 52.7 nM
CSc1ccccc1N1CCN(CCCc2c[nH]c3ccc(C#N)cc23)CC1	97.6%	127 µL/min/mg	208 µL/min/mg				
CSc1ccccc1N1CCN(CCCc2c[nH]c3ccc(F)cc23)CC1				1.9 nM	390 nM		
CSc1ccccc1N1CCN(CCCCc2c[nH]c3ccc(F)cc23)CC1	82.7%	27.8 µL/min/mg	156 µL/min/mg				
